biological target: CDK2/Cyclin E1 (Homo sapiens (Human), UniProt P24941); experiment: CDK2/Cyclin E1 HTRF enzyme activity assay (Example A); assay type: biochemical; settings: 1 mM ATP
Method: Assays were conducted in white 384-well polystyrene plates in a final reaction volume of 8 μL. […] HTRF signals were read after 1 hour at room temperature on a PHERAstar FS plate reader (BMG Labtech). Data was analyzed with IDBS XLFit and GraphPad Prism 5.0 software using a three or four parameter dose response curve to determine IC50 for each compound.

SMILES	IC50 [nM]
CS(=O)(=O)N1CCC(Nc2ncc(C(F)(F)F)c(-c3cn(-c4cccc(F)c4C#N)cn3)n2)CC1 [Example 56, 2-Fluoro-6-(4-(2-((1-(methylsulfonyl)piperidin-4-yl)amino)-5-(trifluoromethyl)pyrimidin-4-yl)-1H-imidazol-1-yl)benzonitrile]	≤ 50
CS(=O)(=O)N1CCC(Nc2ncc(C(F)(F)F)c(-c3cn(-c4cc(F)ccc4C#N)cn3)n2)CC1 [Example 57, 4-Fluoro-2-(4-(2-((1-(methylsulfonyl)piperidin-4-yl)amino)-5-(trifluoromethyl)pyrimidin-4-yl)-1H-imidazol-1-yl)benzonitrile]	≤ 50
CS(=O)(=O)N1CCC(Nc2ncc(C(F)(F)F)c(-c3cn(-c4cccc(C#N)c4Cl)cn3)n2)CC1 [Example 58, 2-Chloro-3-(4-(2-((1-(methylsulfonyl)piperidin-4-yl)amino)-5-(trifluoromethyl)pyrimidin-4-yl)-1H-imidazol-1-yl)benzonitrile]	≤ 50
CS(=O)(=O)N1CCC(Nc2ncc(C(F)(F)F)c(-c3cn(-c4ccc(C#N)cc4C#N)cn3)n2)CC1 [Example 59, 4-(4-(2-((1-(Methylsulfonyl)piperidin-4-yl)amino)-5-(trifluoromethyl)pyrimidin-4-yl)-1H-imidazol-1-yl)isophthalonitrile]	≤ 50
CS(=O)(=O)N1CCC(Nc2ncc(C(F)(F)F)c(-c3cn(-c4cccc(Cl)c4Cl)cn3)n2)CC1 [Example 60, 4-(1-(2,3-Dichlorophenyl)-1H-imidazol-4-yl)-N-(1-(methylsulfonyl)piperidin-4-yl)-5-(trifluoromethyl)pyrimidin-2-amine]	≤ 50
Cc1cccc(-n2cnc(-c3nc(NC4CCN(S(C)(=O)=O)CC4)ncc3C(F)(F)F)c2)c1C#N [Example 61, 2-Methyl-6-(4-(2-((1-(methylsulfonyl)piperidin-4-yl)amino)-5-(trifluoromethyl)pyrimidin-4-yl)-1H-imidazol-1-yl)benzonitrile]	≤ 50
Cc1ccc(-n2cnc(-c3nc(NC4CCN(S(C)(=O)=O)CC4)ncc3C(F)(F)F)c2)c(C#N)c1Cl [Example 62, 2-Chloro-3-methyl-6-(4-(2-((1-(methylsulfonyl)piperidin-4-yl)amino)-5-(trifluoromethyl)pyrimidin-4-yl)-1H-imidazol-1-yl)benzonitrile]	≤ 50
CS(=O)(=O)N1CCC(Nc2ncc(C(F)(F)F)c(-c3cn(-c4cccc(C#N)c4Br)cn3)n2)CC1 [Example 63, 2-Bromo-3-(4-(2-((1-(methylsulfonyl)piperidin-4-yl)amino)-5-(trifluoromethyl)pyrimidin-4-yl)-1H-imidazol-1-yl)benzonitrile]	≤ 50
CS(=O)(=O)N1CCC(Nc2ncc(C(F)(F)F)c(-c3cn(-c4ccc(C(F)(F)F)nc4C#N)cn3)n2)CC1 [Example 64, 3-(4-(2-((1-(Methylsulfonyl)piperidin-4-yl)amino)-5-(trifluoromethyl)pyrimidin-4-yl)-1H-imidazol-1-yl)-6-(trifluoromethyl)picolinonitrile]	≤ 50
CS(=O)(=O)N1CCC(Nc2ncc(C(F)(F)F)c(-c3cn(-c4cccc(F)c4Cl)cn3)n2)CC1 [Example 65, 4-(1-(2-Chloro-3-fluorophenyl)-1H-imidazol-4-yl)-N-(1-(methylsulfonyl)piperidin-4-yl)-5-(trifluoromethyl)pyrimidin-2-amine]	≤ 50
CS(=O)(=O)N1CCC(Nc2ncc(C(F)(F)F)c(-c3cn(-c4cnccc4C(F)(F)F)cn3)n2)CC1 [Example 66, N-(1-(Methylsulfonyl)piperidin-4-yl)-5-(trifluoromethyl)-4-(1-(4-(trifluoromethyl)pyridin-3-yl)-1H-imidazol-4-yl)pyrimidin-2-amine]	≤ 50
CS(=O)(=O)N1CCC(Nc2ncc(C(F)(F)F)c(-c3cn(-c4cnccc4C#N)cn3)n2)CC1 [Example 67, 3-(4-(2-((1-(Methylsulfonyl)piperidin-4-yl)amino)-5-(trifluoromethyl)pyrimidin-4-yl)-1H-imidazol-1-yl)isonicotinonitrile]	≤ 50
CS(=O)(=O)N1CC[C@H](Nc2ncc(C(F)(F)F)c(-c3cn(-c4ccc(C(F)(F)F)cc4C#N)cn3)n2)[C@H](F)C1 [Example 68, 2-(4-(2-(((3R,4S)-3-Fluoro-1-(methylsulfonyl)piperidin-4-yl)amino)-5-(trifluoromethyl)pyrimidin-4-yl)-1H-imidazol-1-yl)-5-(trifluoromethyl)benzonitrile]	≤ 50
CS(=O)(=O)N1CC[C@H](Nc2ncc(C(F)(F)F)c(-c3cn(-c4cccc(C#N)c4C(F)(F)F)cn3)n2)[C@H](F)C1 [Example 69, 3-(4-(2-(((3R,4S)-3-Fluoro-1-(methylsulfonyl)piperidin-4-yl)amino)-5-(trifluoromethyl)pyrimidin-4-yl)-1H-imidazol-1-yl)-2-(trifluoromethyl)benzonitrile]	≤ 50
COc1ccc(-n2cnc(-c3nc(NC4CCN(S(C)(=O)=O)CC4)ncc3C(F)(F)F)c2)c(C(F)(F)F)n1 [Example 70, 4-(1-(6-Methoxy-2-(trifluoromethyl)pyridin-3-yl)-1H-imidazol-4-yl)-N-(1-(methylsulfonyl)piperidin-4-yl)-5-(trifluoromethyl)pyrimidin-2-amine]	≤ 50
CC(C)(O)CCOc1ccc(-n2cnc(-c3nc(NC4CCN(S(C)(=O)=O)CC4)ncc3C(F)(F)F)c2)c(C(F)(F)F)n1 [Example 71, 2-Methyl-4-((5-(4-(2-((1-(methylsulfonyl)piperidin-4-yl)amino)-5-(trifluoromethyl)pyrimidin-4-yl)-1H-imidazol-1-yl)-6-(trifluoromethyl)pyridin-2-yl)oxy)butan-2-ol]	≤ 50
CN(C)CCOc1ccc(-n2cnc(-c3nc(NC4CCN(S(C)(=O)=O)CC4)ncc3C(F)(F)F)c2)c(C(F)(F)F)n1 [Example 72, 4-(1-(6-(2-(Dimethylamino)ethoxy)-2-(trifluoromethyl)pyridin-3-yl)-1H-imidazol-4-yl)-N-(1-(methylsulfonyl)piperidin-4-yl)-5-(trifluoromethyl)pyrimidin-2-amine]	≤ 50
CC(CN(C)C)Oc1ccc(-n2cnc(-c3nc(NC4CCN(S(C)(=O)=O)CC4)ncc3C(F)(F)F)c2)c(C(F)(F)F)n1 (stereo not drawn) [Example 73, 4-(1-(6-((1-(Dimethylamino)propan-2-yl)oxy)-2-(trifluoromethyl)pyridin-3-yl)-1H-imidazol-4-yl)-N-(1-(methylsulfonyl)piperidin-4-yl)-5-(trifluoromethyl)pyrimidin-2-amine]	≤ 50
CC(C#N)Oc1ccc(-n2cnc(-c3nc(NC4CCN(S(C)(=O)=O)CC4)ncc3C(F)(F)F)c2)c(C(F)(F)F)n1 (stereo not drawn) [Example 74, 2-((5-(4-(2-((1-(Methylsulfonyl)piperidin-4-yl)amino)-5-(trifluoromethyl)pyrimidin-4-yl)-1H-imidazol-1-yl)-6-(trifluoromethyl)pyridin-2-yl)oxy)propanenitrile]	≤ 50
COc1ccc(-n2cnc(-c3nc(NC4CCN(S(C)(=O)=O)CC4)ncc3C(F)(F)F)c2)c(C(F)F)n1 [Example 75, 4-(1-(2-(Difluoromethyl)-6-methoxypyridin-3-yl)-1H-imidazol-4-yl)-N-(1-(methylsulfonyl)piperidin-4-yl)-5-(trifluoromethyl)pyrimidin-2-amine]	≤ 50
CCN(C)CCOc1ccc(-n2cnc(-c3nc(NC4CCN(S(C)(=O)=O)CC4)ncc3C(F)(F)F)c2)c(C#N)n1 [Example 76, 6-(2-(Ethyl(methyl)amino)ethoxy)-3-(4-(2-((1-(methylsulfonyl)piperidin-4-yl)amino)-5-(trifluoromethyl)pyrimidin-4-yl)-1H-imidazol-1-yl)picolinonitrile]	≤ 50
CN(C)Cc1cccc(-n2cnc(-c3nc(NC4CCN(S(C)(=O)=O)CC4)ncc3C(F)(F)F)c2)c1Cl [Example 77, 4-(1-(2-Chloro-3-((dimethylamino)methyl)phenyl)-1H-imidazol-4-yl)-N-(1-(methylsulfonyl)piperidin-4-yl)-5-(trifluoromethyl)pyrimidin-2-amine]	≤ 50
CN1CCN(Cc2cccc(-n3cnc(-c4nc(NC5CCN(S(C)(=O)=O)CC5)ncc4C(F)(F)F)c3)c2Cl)CC1 [Example 78, 4-(1-(2-Chloro-3-((4-methylpiperazin-1-yl)methyl)phenyl)-1H-imidazol-4-yl)-N-(1-(methylsulfonyl)piperidin-4-yl)-5-(trifluoromethyl)pyrimidin-2-amine]	≤ 50
CC1(NCc2cccc(-n3cnc(-c4nc(NC5CCN(S(C)(=O)=O)CC5)ncc4C(F)(F)F)c3)c2Cl)CCOCC1 [Example 79, 4-(1-(2-Chloro-3-(((4-methyltetrahydro-2H-pyran-4-yl)amino)methyl)phenyl)-1H-imidazol-4-yl)-N-(1-(methylsulfonyl)piperidin-4-yl)-5-(trifluoromethyl)pyrimidin-2-amine]	≤ 50
CNCc1cccc(-n2cnc(-c3nc(NC4CCN(S(C)(=O)=O)CC4)ncc3C(F)(F)F)c2)c1Cl [Example 80, 4-(1-(2-Chloro-3-((methylamino)methyl)phenyl)-1H-imidazol-4-yl)-N-(1-(methylsulfonyl)piperidin-4-yl)-5-(trifluoromethyl)pyrimidin-2-amine]	≤ 50
CS(=O)(=O)N1CCC(Nc2ncc(C(F)(F)F)c(-c3cn(-c4cccc(CNC5CC5)c4Cl)cn3)n2)CC1 [Example 81, 4-(1-(2-Chloro-3-((cyclopropylamino)methyl)phenyl)-1H-imidazol-4-yl)-N-(1-(methylsulfonyl)piperidin-4-yl)-5-(trifluoromethyl)pyrimidin-2-amine]	≤ 50
CS(=O)(=O)N1CCC(Nc2ncc(C(F)(F)F)c(-c3cn(-c4cccc(CN5CC(O)C5)c4Cl)cn3)n2)CC1 [Example 82, 1-(2-Chloro-3-(4-(2-((1-(methylsulfonyl)piperidin-4-yl)amino)-5-(trifluoromethyl)pyrimidin-4-yl)-1H-imidazol-1-yl)benzyl)azetidin-3-ol]	≤ 50

Source: US11427567B2, “Imidazolyl pyrimidinylamine compounds as CDK2 inhibitors” (Incyte Corporation, priority 2019, dated 2022)
